What was measured:
Test in all cases: relative viability (nuclei count vs DMSO), 5 days (fraction); higher = more cells survive
PAC-1 + Phenformin = compound: C=CCc1cccc(/C=N/NC(=O)CN2CCN(Cc3ccccc3)CC2)c1O [PAC-1] + N=C(N)NC(=N)NCCc1ccccc1 [Phenformin] (partner 250 µM)
Procedure, shortened: (§1)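 The day after seeding in 1536-well plates, lung cancer cell lines were treated by pin tool with a single drug, or with a fixed anchor-drug dose together with five library-drug doses (not always all listed) in √10 steps. After 5 days, a combined fix-and-stain solution (final 0.05% Triton X-100, 1% formaldehyde, 1 ug/ml Hoechst) was added. Nuclei counted on 4× images gave relative viability as treated counts over vehicle counts, reported as the median of duplicate plates.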

Ibrutinib + Trametinib = compound: C=CC(=O)N1CCC[C@@H](n2nc(-c3ccc(Oc4ccccc4)cc3)c3c(N)ncnc32)C1 [Ibrutinib] + CC(=O)Nc1cccc(-n2c(=O)n(C3CC3)c(=O)c3c(Nc4ccc(I)cc4F)n(C)c(=O)c(C)c32)c1 [Trametinib] (partner 0.02 µM)
Procedure, shortened: as §1

BMX-IN-1 + Dasatinib = compound: C=CC(=O)Nc1cc(-n2c(=O)ccc3cnc4ccc(-c5ccc(NS(C)(=O)=O)cc5)cc4c32)ccc1C [BMX-IN-1] + Cc1nc(Nc2ncc(C(=O)Nc3c(C)cccc3Cl)s2)cc(N2CCN(CCO)CC2)n1 [Dasatinib] (partner 0.075 µM)
Procedure, shortened: as §1

PAC-1 + Olaparib = compound: C=CCc1cccc(/C=N/NC(=O)CN2CCN(Cc3ccccc3)CC2)c1O [PAC-1] + O=C(c1cc(Cc2n[nH]c(=O)c3ccccc23)ccc1F)N1CCN(C(=O)C2CC2)CC1 [Olaparib] (partner 8 µM)
Procedure, shortened: as §1

Cell Line	relative viability (PAC-1 + Phenformin; first compound 0.02 µM)	relative viability (PAC-1 + Phenformin; first compound 0.06325 µM)	relative viability (PAC-1 + Phenformin; first compound 0.2 µM)	relative viability (PAC-1 + Phenformin; first compound 2 µM)	relative viability (Ibrutinib + Trametinib; first compound 0.005 µM)	relative viability (Ibrutinib + Trametinib; first compound 0.01581 µM)	relative viability (Ibrutinib + Trametinib; first compound 0.05 µM)	relative viability (Ibrutinib + Trametinib; first compound 0.1581 µM)	relative viability (Ibrutinib + Trametinib; first compound 0.5 µM)	relative viability (BMX-IN-1 + Dasatinib; first compound 0.02 µM)	relative viability (BMX-IN-1 + Dasatinib; first compound 0.2 µM)	relative viability (BMX-IN-1 + Dasatinib; first compound 0.6325 µM)	relative viability (BMX-IN-1 + Dasatinib; first compound 2 µM)	relative viability (PAC-1 + Olaparib; first compound 0.02 µM)	relative viability (PAC-1 + Olaparib; first compound 0.06325 µM)	relative viability (PAC-1 + Olaparib; first compound 2 µM)	relative viability (PAC-1 + Olaparib; first compound 0.2 µM)
LCLC-97TM1	0.507	0.456	0.424	0.427	0.192	0.172	0.202	0.192	0.155	0.927	0.893	1	0.943	0.364	0.524	0.338	–
NCI-H2023	0.427	0.404	0.405	0.397	0.448	0.455	0.491	0.485	0.462	0.767	0.637	0.667	0.682	0.468	0.425	0.257	0.449
LC-2-ad	0.609	0.654	0.573	0.512	0.914	0.907	–	0.929	0.863	0.658	0.737	0.74	0.642	0.704	0.712	0.635	0.35
NCI-H1975	0.404	0.389	0.401	0.447	0.274	0.303	0.287	0.302	0.213	0.362	0.382	0.457	0.38	0.779	0.809	0.703	0.811
NCI-H1793	0.327	0.376	0.355	0.353	0.485	0.423	0.436	0.419	0.401	0.417	0.432	0.479	0.451	0.682	0.855	0.628	0.7
Calu-6	–	–	–	–	–	–	–	–	–	–	–	–	–	0.546	0.585	0.61	–
HCC-366	0.612	0.634	0.595	0.655	0.34	0.366	0.317	0.394	0.391	0.907	0.741	0.618	0.71	0.314	0.411	0.378	0.306
NCI-H2347	0.184	0.441	0.352	0.553	0.283	0.228	0.37	0.245	0.239	0.344	0.281	0.287	0.323	0.544	0.622	0.515	0.551
NCI-H2405	0.398	0.403	0.391	0.361	0.546	0.558	–	–	0.448	0.225	0.501	0.223	0.19	0.879	0.894	0.94	0.922
HCC-44	0.184	0.18	0.17	0.131	1.04	1.04	0.992	1.19	1.06	–	–	–	–	1.05	0.906	0.986	0.963
NCI-H1563	0.655	0.679	0.663	0.66	–	–	–	–	–	0.441	0.463	0.423	0.428	–	–	–	–

Source: the supplement of paper PMC10307832
